Patent US5925529A, “Method for discovery of peptide agonists” (The Regents of the University of California, priority 1995, dated 1999)
“Also recorded” adds a separate entry of the source.

Legend:
Human fMLF receptor = molecular target: T1, Human fMLF receptor (Homo sapiens, UniProt P21462); test: Agonist-induced 45Ca release from Xenopus oocytes expressing the formyl peptide receptor; format: cell-based; conditions: Xenopus oocytes injected with human fMLF receptor cRNA; compared with fMLF (FIG. 2)
T1 construct: expressed in transfected cells; host or cells: Xenopus laevis oocytes microinjected with cRNA
T1 sequence (P21462 1-350): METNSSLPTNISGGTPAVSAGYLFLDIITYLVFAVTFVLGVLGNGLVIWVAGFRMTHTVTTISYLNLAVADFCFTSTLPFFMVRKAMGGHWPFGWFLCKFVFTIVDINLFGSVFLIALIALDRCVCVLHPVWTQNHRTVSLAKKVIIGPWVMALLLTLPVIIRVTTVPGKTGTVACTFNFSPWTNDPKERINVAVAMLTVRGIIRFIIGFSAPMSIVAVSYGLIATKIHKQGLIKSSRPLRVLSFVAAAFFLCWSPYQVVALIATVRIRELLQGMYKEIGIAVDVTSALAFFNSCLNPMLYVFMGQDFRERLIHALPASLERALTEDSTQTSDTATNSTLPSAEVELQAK
Method: Xenopus oocytes were harvested from female Xenopus laevis and processed using published techniques. Coleman, A., In Transcription and Translation: A Practical Approach, Oxford: IRL Press, pp. 271-302 (1984); Williams et al., PNAS 85: 4939-4943 (1988). To remove follicular cells, oocytes were incubated for 4 hr at room temperature with 1 mg/ml Sigma type II collagenase in modified Barth's solution (MBSH) without Ca^2+, then washed and incubated overnight at 18° C. in MBSH II (MBSH containing 1 mg/ml bovine serum albumin, 1 ml/ml Ficoll, 100 U/ml penicillin, 100 μg/ml streptomycin, and 50 μg/ml gentamicin). […]
Agonist-induced increases in ^45 Ca^2+ release were assessed by published techniques. […] The harvested medium was analyzed by scintillation counting to determine ^45 Ca^2+ release by the oocytes during each 10 min incubation. […] At this point, two additional 10 min collections were obtained, then medium including agonist was added and agonist-induced ^45 Ca^2+ release determined.
Formyl peptide receptor response to its classical agonist fMLF (SEQ ID NO:12) and to the new agonist derived from tethered ligand library. […] Xenopus oocytes were microinjected with 5 ng cRNA transcribed from this construct, cultured for 24 hours, and ^45 Ca release in response to the indicated concentration of peptides was measured as described above.

uninjected oocytes = test: 45Ca release in uninjected Xenopus oocytes (control for receptor dependence); format: cell-based, Xenopus laevis
Method: (§1) Xenopus oocytes were harvested from female Xenopus laevis and processed using published techniques. Coleman, A., In Transcription and Translation: A Practical Approach, Oxford: IRL Press, pp. 271-302 (1984); Williams et al., PNAS 85: 4939-4943 (1988). To remove follicular cells, oocytes were incubated for 4 hr at room temperature with 1 mg/ml Sigma type II collagenase in modified Barth's solution (MBSH) without Ca^2+, then washed and incubated overnight at 18° C. in MBSH II (MBSH containing 1 mg/ml bovine serum albumin, 1 ml/ml Ficoll, 100 U/ml penicillin, 100 μg/ml streptomycin, and 50 μg/ml gentamicin). Dumont stage V oocytes were selected and microinjected with 5 to 50 nl of mRNA (1 μg/μl in 10 mM HEPES, pH 7.0). Microinjected oocytes were cultured for 24 hr at 18° C. in MBSH then selected for functional assays.
(§2) Agonist-induced increases in ^45 Ca^2+ release were assessed by published techniques. Williams et al., PNAS 85:4939-4943 (1988). […] The harvested medium was analyzed by scintillation counting to determine ^45 Ca^2+ release by the oocytes during each 10 min incubation. […] At this point, two additional 10 min collections were obtained, then medium including agonist was added and agonist-induced ^45 Ca^2+ release determined. […]

[1] = molecular target: T2, wild type human thrombin receptor (Homo sapiens, UniProt P25116); test: Agonist-induced 45Ca release from Xenopus oocytes expressing the wild type thrombin receptor; format: cell-based; conditions: Xenopus oocytes expressing epitope tagged wild type human thrombin receptor; compared with SFLLR peptide (FIG. 5A)
T2 construct: expressed in transfected cells; host or cells: Xenopus laevis oocytes (cRNA)
T2 sequence (P25116 22-425): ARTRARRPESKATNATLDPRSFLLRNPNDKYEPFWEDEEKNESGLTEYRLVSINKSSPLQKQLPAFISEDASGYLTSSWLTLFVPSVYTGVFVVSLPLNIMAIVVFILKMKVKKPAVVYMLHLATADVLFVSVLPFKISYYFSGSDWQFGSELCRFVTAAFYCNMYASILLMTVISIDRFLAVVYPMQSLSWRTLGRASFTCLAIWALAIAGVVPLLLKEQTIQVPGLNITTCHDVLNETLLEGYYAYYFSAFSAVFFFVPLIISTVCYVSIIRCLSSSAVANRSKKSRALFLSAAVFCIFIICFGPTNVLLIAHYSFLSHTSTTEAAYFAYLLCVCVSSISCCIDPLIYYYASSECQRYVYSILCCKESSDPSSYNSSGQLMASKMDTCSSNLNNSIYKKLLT
Method: as §1, §2

formyl peptide receptor = conditions: compared with f-MLF; cited from earlier work

Substance	agonist activity / signaling (45Ca release) at the formyl peptide receptor (Human fMLF receptor)	signaling (45Ca release) in uninjected oocytes (uninjected oocytes)	agonist activity / signaling (45Ca release) at the thrombin receptor [1]	activity of the unformylated peptide relative to f-MLF (fold less activity) (formyl peptide receptor)
GFIYF	did not cause signaling	did not cause signaling	nearly as effective as the SFLLR; also recorded: receptor-dependent	
MLF				at least 1000 fold
